{"source": "ChEMBL document CHEMBL1143495", "about": "“Topological model for the prediction of MRP1 inhibitory activity of pyrrolopyrimidines and templates derived from pyrrolopyrimidine” (Bioorg Med Chem Lett, 2005)", "target": "Multidrug resistance-associated protein 1 (Homo sapiens, UniProt P33527)", "sequence (P33527 whole entry)": "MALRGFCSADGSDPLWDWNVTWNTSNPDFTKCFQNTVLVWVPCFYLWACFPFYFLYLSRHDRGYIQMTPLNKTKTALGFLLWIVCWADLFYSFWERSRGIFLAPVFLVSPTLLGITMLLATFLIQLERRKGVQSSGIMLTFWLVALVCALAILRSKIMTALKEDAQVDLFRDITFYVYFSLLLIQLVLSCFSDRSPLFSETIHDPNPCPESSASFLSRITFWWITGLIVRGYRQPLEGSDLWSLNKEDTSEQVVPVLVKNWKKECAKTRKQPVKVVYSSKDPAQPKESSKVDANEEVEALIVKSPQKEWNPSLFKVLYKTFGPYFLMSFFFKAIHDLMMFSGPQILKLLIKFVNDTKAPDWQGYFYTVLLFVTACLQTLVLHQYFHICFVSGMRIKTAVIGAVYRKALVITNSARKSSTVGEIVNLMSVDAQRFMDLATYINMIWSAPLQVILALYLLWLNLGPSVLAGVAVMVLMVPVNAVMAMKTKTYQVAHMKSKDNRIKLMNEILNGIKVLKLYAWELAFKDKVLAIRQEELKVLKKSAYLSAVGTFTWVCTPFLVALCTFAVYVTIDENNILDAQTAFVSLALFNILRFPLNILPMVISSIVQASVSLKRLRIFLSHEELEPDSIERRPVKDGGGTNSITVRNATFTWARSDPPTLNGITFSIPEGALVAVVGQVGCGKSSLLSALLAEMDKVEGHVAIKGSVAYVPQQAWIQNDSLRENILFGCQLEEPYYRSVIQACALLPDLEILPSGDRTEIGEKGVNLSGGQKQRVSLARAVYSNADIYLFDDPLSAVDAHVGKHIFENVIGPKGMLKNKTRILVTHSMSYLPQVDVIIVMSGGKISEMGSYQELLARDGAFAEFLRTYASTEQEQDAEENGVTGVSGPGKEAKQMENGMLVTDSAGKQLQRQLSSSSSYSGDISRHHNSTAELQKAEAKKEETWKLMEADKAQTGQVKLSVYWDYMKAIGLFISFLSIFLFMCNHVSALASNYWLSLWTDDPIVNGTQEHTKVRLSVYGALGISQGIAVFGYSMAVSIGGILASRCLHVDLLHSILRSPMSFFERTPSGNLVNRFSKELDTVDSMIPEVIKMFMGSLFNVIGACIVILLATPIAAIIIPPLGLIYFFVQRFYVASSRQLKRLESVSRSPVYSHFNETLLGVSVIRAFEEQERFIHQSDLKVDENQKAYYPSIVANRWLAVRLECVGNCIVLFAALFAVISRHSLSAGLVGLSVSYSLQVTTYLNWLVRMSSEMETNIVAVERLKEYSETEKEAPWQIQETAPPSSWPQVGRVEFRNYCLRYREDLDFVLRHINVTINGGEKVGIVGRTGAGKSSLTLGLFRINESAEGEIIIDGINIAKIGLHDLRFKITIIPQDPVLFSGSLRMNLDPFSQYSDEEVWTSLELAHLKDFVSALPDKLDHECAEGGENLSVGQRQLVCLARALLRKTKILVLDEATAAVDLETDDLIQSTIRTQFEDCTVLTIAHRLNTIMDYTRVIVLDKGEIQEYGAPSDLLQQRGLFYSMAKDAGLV", "assay": "Inhibitory concentration against multidrug resistance associated protein 1"}
{"smiles": "NC(=O)c1c2n(c3c(N4CCN(CCc5ccc(F)c(F)c5)CC4)ncnc13)CCCC2", "values": [{"measurement": "IC50", "value": "< 250", "unit": "nM"}]}
{"smiles": "Cc1cnc2c(c1C#N)c1ncnc(N3CCN(CCc4ccc(F)c(F)c4)CC3)c1n2C", "values": [{"measurement": "IC50", "value": "≥ 250", "unit": "nM"}]}
{"smiles": "N#Cc1c2n(c3c(N4CCN(CCc5ccc(Cl)cc5)CC4)ncnc13)CCCC2", "values": [{"measurement": "IC50", "value": "≥ 250", "unit": "nM"}]}
{"smiles": "Cc1ccccc1-c1nc(N2CCN(CCc3ccc(F)c(F)c3)CC2)c2c(n1)c(C#N)c1n2CCCC1", "values": [{"measurement": "IC50", "value": "≥ 250", "unit": "nM"}]}
{"smiles": "O=C(c1ccccc1)c1c2n(c3c(N4CCN(CCc5ccccc5)CC4)ncnc13)CCCC2", "values": [{"measurement": "IC50", "value": "≥ 250", "unit": "nM"}]}
{"smiles": "COc1cccc(CNC(=O)c2c3n(c4c(N5CCN(CCc6ccc(F)c(F)c6)CC5)ncnc24)CCCC3)c1OC", "values": [{"measurement": "IC50", "value": "< 250", "unit": "nM"}]}
{"smiles": "N#Cc1c2n(c3c(N4CCN(CCc5ccccc5)CC4)nc(I)nc13)CCCC2", "values": [{"measurement": "IC50", "value": "≥ 250", "unit": "nM"}]}
{"smiles": "O=C(NCc1ccccn1)c1c2n(c3c(N4CCN(CCc5ccc(F)c(F)c5)CC4)ncnc13)CCCC2", "values": [{"measurement": "IC50", "value": "< 250", "unit": "nM"}]}
{"smiles": "Cc1cnc2c(c1C(N)=O)c1ncnc(N3CCN(CCc4ccc(F)c(F)c4)CC3)c1n2C", "values": [{"measurement": "IC50", "value": "< 250", "unit": "nM"}]}
{"smiles": "CCC(=O)c1c2n(c3c(N4CCN(CCc5ccccc5)CC4)ncnc13)CCCC2", "values": [{"measurement": "IC50", "value": "≥ 250", "unit": "nM"}]}
{"smiles": "COc1ccc(CCN2CCN(c3ncnc4c(C#N)c5n(c34)CCCC5)CC2)cc1", "values": [{"measurement": "IC50", "value": "≥ 250", "unit": "nM"}]}
{"smiles": "Cc1nc(-c2c3n(c4c(N5CCN(CCc6ccccc6)CC5)ncnc24)CCCC3)sc1C", "values": [{"measurement": "IC50", "value": "≥ 250", "unit": "nM"}]}
{"smiles": "Cc1c([N+](=O)[O-])nc2c(c1C(N)=O)c1ncnc(N3CCN(CCc4ccc(F)c(F)c4)CC3)c1n2C", "values": [{"measurement": "IC50", "value": "< 250", "unit": "nM"}]}
{"smiles": "N#Cc1c2n(c3c(N4CCN(CCc5ccc(F)c(F)c5)CC4)nc(-c4ccncc4)nc13)CCCC2", "values": [{"measurement": "IC50", "value": "< 250", "unit": "nM"}]}
{"smiles": "N#Cc1c2n(c3c(N4CCN(CCc5c[nH]c6ccccc56)CC4)ncnc13)CCCC2", "values": [{"measurement": "IC50", "value": "≥ 250", "unit": "nM"}]}
{"smiles": "CN(CCc1ccccc1)c1ncnc2c(C#N)c3n(c12)CCCC3", "values": [{"measurement": "IC50", "value": "≥ 250", "unit": "nM"}]}
{"smiles": "CC(=O)Nc1ccc(-c2nc(N3CCN(CCc4ccccc4)CC3)c3c(n2)c(C#N)c2n3CCCC2)cc1", "values": [{"measurement": "IC50", "value": "≥ 250", "unit": "nM"}]}
{"smiles": "COc1cccc(CCN2CCN(c3ncnc4c(C#N)c5n(c34)CCCC5)CC2)c1", "values": [{"measurement": "IC50", "value": "≥ 250", "unit": "nM"}]}
{"smiles": "N#Cc1c2n(c3c(NS(=O)(=O)Cc4ccccc4)ncnc13)CCCC2", "values": [{"measurement": "IC50", "value": "≥ 250", "unit": "nM"}]}
{"smiles": "N#Cc1c2n(c3c(N4CCN(CCc5ccc(F)c(F)c5)CC4)ncnc13)CCCC2", "values": [{"measurement": "IC50", "value": "< 250", "unit": "nM"}]}
{"smiles": "N#Cc1c2n(c3c(N4CCN(CC(=O)c5ccccc5)CC4)ncnc13)CCCC2", "values": [{"measurement": "IC50", "value": "≥ 250", "unit": "nM"}]}
{"smiles": "N#Cc1c2n(c3c(N4CCN(CCc5ccccc5)CC4)nc(-c4ccccc4)nc13)CCCC2", "values": [{"measurement": "IC50", "value": "≥ 250", "unit": "nM"}]}
{"smiles": "Cc1nc(-c2c3n(c4c(N5CCN(CCc6ccccc6)CC5)ncnc24)CCCC3)no1", "values": [{"measurement": "IC50", "value": "≥ 250", "unit": "nM"}]}
{"smiles": "N#Cc1c2n(c3c(NCCc4ccccc4)ncnc13)CCCC2", "values": [{"measurement": "IC50", "value": "≥ 250", "unit": "nM"}]}
{"smiles": "N#Cc1c2n(c3c(N4CCN(CCc5ccccc5[N+](=O)[O-])CC4)ncnc13)CCCC2", "values": [{"measurement": "IC50", "value": "≥ 250", "unit": "nM"}]}
{"smiles": "N#Cc1c2n(c3c(N4CCN(CCc5cccc([N+](=O)[O-])c5)CC4)ncnc13)CCCC2", "values": [{"measurement": "IC50", "value": "≥ 250", "unit": "nM"}]}
{"smiles": "N#Cc1c2n(c3c(N4CCN(CCc5ccc([N+](=O)[O-])cc5)CC4)ncnc13)CCCC2", "values": [{"measurement": "IC50", "value": "≥ 250", "unit": "nM"}]}
{"smiles": "CCOC(=O)Cn1c2cccc(C(N)=O)c2c2ncnc(N3CCN(CCc4ccc(F)c(F)c4)CC3)c21", "values": [{"measurement": "IC50", "value": "< 250", "unit": "nM"}]}
{"smiles": "N#Cc1c2n(c3c(N4CCN(CCc5ccc(F)c(F)c5)CC4)nc(-c4cccnc4)nc13)CCCC2", "values": [{"measurement": "IC50", "value": "< 250", "unit": "nM"}]}
{"smiles": "N#Cc1c2n(c3c(N4CCN(CCCc5ccccc5)CC4)ncnc13)CCCC2", "values": [{"measurement": "IC50", "value": "≥ 250", "unit": "nM"}]}
{"smiles": "N#Cc1c2n(c3c(N4CCN(S(=O)(=O)Cc5ccccc5)CC4)ncnc13)CCCC2", "values": [{"measurement": "IC50", "value": "≥ 250", "unit": "nM"}]}
{"smiles": "c1ccc(CCN2CCN(c3ncnc4c(-c5ncccn5)c5n(c34)CCCC5)CC2)cc1", "values": [{"measurement": "IC50", "value": "≥ 250", "unit": "nM"}]}
{"smiles": "N#Cc1c2n(c3c(N4CCN(CCc5ccccc5Cl)CC4)ncnc13)CCCC2", "values": [{"measurement": "IC50", "value": "≥ 250", "unit": "nM"}]}
{"smiles": "N#Cc1c2n(c3c(NCCN4CCc5ccccc5C4)ncnc13)CCCC2", "values": [{"measurement": "IC50", "value": "≥ 250", "unit": "nM"}]}
{"smiles": "COC(=O)c1c2n(c3c(N4CCN(CCc5ccccc5)CC4)ncnc13)CCCC2", "values": [{"measurement": "IC50", "value": "≥ 250", "unit": "nM"}]}
{"smiles": "N#Cc1c2n(c3c(N4CCN(CCc5cccc(Cl)c5)CC4)ncnc13)CCCC2", "values": [{"measurement": "IC50", "value": "≥ 250", "unit": "nM"}]}
